Source: the NIST ThermoML archive (doi:10.1016/j.jct.2007.07.010)
Where “and” joins values, the source holds several entries; their conditions need not be identical. Equal entries are not always repeated.

What was measured:
[1] = Crystal; for vapor or sublimation pressure: Calculated from knudsen effusion weight loss; for Normal melting temperature: DTA
[2] = Molar enthalpy of transition or fusion; conditions: Crystal; DSC

O=C(O)Cc1ccccc1Cl [(2-chlorophenyl)ethanoic acid]
[1]
Conditions | vapor or sublimation pressure
322.2 K | 0.000151 kPa and 0.000153 kPa and 0.000152 kPa
324.14 K | 0.000196 kPa and 0.000198 kPa and 0.000197 kPa
326.11 K | 0.00025 kPa and 0.000251 kPa and 0.000255 kPa
328.2 K | 0.000315 kPa and 0.00032 kPa and 0.000316 kPa
330.13 K | 0.000401 kPa and 0.000406 kPa and 0.000402 kPa
332.19 K | 0.000518 kPa and 0.000512 kPa
334.12 K | 0.00065 kPa and 0.000639 kPa
336.11 K | 0.000837 kPa and 0.000813 kPa and 0.000829 kPa
338.11 K | 0.00105 kPa and 0.00103 kPa

Conditions | Molar enthalpy of transition or fusion [kJ/mol] | Normal melting temperature [°C]
[1] | – | 94.24
[2] | 24.3 | –

O=C(O)Cc1cccc(Cl)c1 [(3-chlorophenyl)ethanoic acid]
[1]
Conditions | vapor or sublimation pressure
319.2 K | 0.000131 kPa and 0.000132 kPa and 0.000133 kPa
321.13 K | 0.000172 kPa and 0.000174 kPa
323.11 K | 0.000226 kPa and 0.000216 kPa and 0.000224 kPa
325.2 K | 0.000281 kPa and 0.000279 kPa
327.12 K | 0.000356 kPa and 0.00036 kPa
329.11 K | 0.000468 kPa and 0.000453 kPa and 0.00046 kPa
331.19 K | 0.000576 kPa and 0.000578 kPa and 0.000567 kPa
333.11 K | 0.000733 kPa and 0.000713 kPa
335.11 K | 0.00092 kPa

Conditions | Molar enthalpy of transition or fusion [kJ/mol] | Normal melting temperature [°C]
[1] | – | 76.63
[2] | 22.6 | –

O=C(O)Cc1ccc(Cl)cc1 [(4-chlorophenyl)ethanoic acid]
[1]
Conditions | vapor or sublimation pressure
325.2 K | 0.000154 kPa and 0.000156 kPa and 0.000153 kPa
327.15 K | 0.000194 kPa and 0.000199 kPa and 0.000197 kPa
329.12 K | 0.000252 kPa and 0.00025 kPa
331.19 K | 0.000318 kPa and 0.000312 kPa
333.14 K | 0.000401 kPa and 0.000398 kPa and 0.000394 kPa
335.12 K | 0.000506 kPa and 0.000502 kPa
337.2 K | 0.000631 kPa and 0.000634 kPa
339.13 K | 0.000788 kPa and 0.000793 kPa and 0.000775 kPa
341.11 K | 0.001 kPa and 0.00099 kPa and 0.00098 kPa

Conditions | Molar enthalpy of transition or fusion [kJ/mol] | Normal melting temperature [°C]
[1] | – | 104.8
[2] | 23.6 | –
